Among the test systems are ACHN; COLO 205; HCT-116; HCT-15; HOP-92; LXFL 529; MDA-N; MOLT-4; Malme-3M; NCI-H226; NCI/ADR-RES; OVCAR-3; OVCAR-4; OVCAR-5; SF-539; SK-MEL-2; SNB-75; SNB-78; SR; UACC-62.
What all share (experiment): NCI-60 cell line screen, 48 h

Each structure is given as a SMILES string.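 Following 48 hours of exposure in 96-well plates, responses at five concentrations were used to interpolate endpoints linearly. GI50: concentration for 50% inhibition of growth.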 Active and inactive are the calls of the source. Cut-off read from the data, not from the text of the source: active = GI50 up to about 1.1 µM and inactive = higher.

Consider `COc1cccc2c1[C@H]1CO[C@H]3C4C[C@H](C(=O)O)C([C@@H](C2)N13)N4C` (some centres not stated), for which the GI50 with ACHN was 3.85 µM (inactive); in the assay with COLO 205 it was 1.6 µM (inactive); in the assay on HCT-116, 2.53 µM (inactive); in the assay on HCT-15, 1.67 µM; in the assay with HOP-92 it was 1.66 µM (inactive); with LXFL 529 it was 2.27 µM (inactive). Further, the GI50 in the assay on MDA-N was 0.17 µM (active); with MOLT-4, 1.69 µM (inactive); in the assay with Malme-3M, 2.61 µM (inactive); in the assay on NCI-H226 it was 1.29 µM (inactive); in the assay on NCI/ADR-RES, 0.764 µM (active); in the assay on OVCAR-3, 1.38 µM (inactive). Also, the GI50 with OVCAR-4 is 5 µM (inactive); with OVCAR-5 it was 2.37 µM (inactive); in the assay with SF-539, 1.56 µM (inactive); in the assay with SK-MEL-2 it was 1.08 µM (active); with SNB-75, 1.48 µM (inactive); in the assay on SNB-78, 3.72 µM (inactive). The GI50 is 1.14 µM (inactive) in the assay on SR and 1.12 µM (inactive) with UACC-62.

As for `O=C(/C=C/c1ccccc1)CCN1CCOCC1`, the GI50 in the assay on ACHN is 15.2 µM (inactive); with COLO 205, 8.3 µM (inactive); in the assay with HCT-116, 12.1 µM (inactive); in the assay with HCT-15 it was 8.57 µM; in the assay with HOP-92, 16.8 µM (inactive); with LXFL 529, 2.78 µM (inactive). Also, the GI50 in the assay on MDA-N was 14.2 µM (inactive); with MOLT-4, 4.28 µM (inactive); with Malme-3M it was 18.6 µM (inactive); with NCI-H226, 20.8 µM (inactive); in the assay with NCI/ADR-RES, 21.6 µM (inactive); in the assay with OVCAR-3 it was 14.3 µM (inactive). Moreover, the GI50 with OVCAR-4 is 20.9 µM (inactive); in the assay with OVCAR-5, 15.7 µM (inactive); in the assay with SF-539, 12.1 µM (inactive); in the assay with SK-MEL-2, 21.1 µM (inactive); with SNB-75 it was 23.4 µM (inactive); in the assay on SNB-78, 19 µM (inactive). Further, the GI50 is 2.06 µM (inactive) in the assay on SR and 16 µM (inactive) in the assay on UACC-62.

As to `COc1cc2c(oc(=O)c3cc4cc([Si](C)(C)C)oc4c(OC)c32)c2cccc(O)c12`, the GI50 in the assay on ACHN was > 100 µM (inactive); with COLO 205, > 100 µM (inactive); in the assay with HCT-116, > 100 µM (inactive); with HCT-15, above 100 µM; in the assay on HOP-92, > 100 µM (inactive); in the assay on LXFL 529, > 100 µM (inactive). Moreover, the GI50 with MOLT-4, in the assay on Malme-3M, in the assay with NCI-H226, in the assay on OVCAR-3, with OVCAR-4 and in the assay with OVCAR-5 was > 100 µM (inactive) in each case. Moreover, the GI50 in the assay with SF-539, in the assay on SK-MEL-2, in the assay on SNB-75, in the assay on SNB-78, in the assay with SR and in the assay on UACC-62 was > 100 µM (inactive) each time.

As for `CCN(CC)CC(C)C(=O)/C=C/c1ccc(C)cc1` (configuration not stated), the GI50 with ACHN is 2.06 µM (inactive); with COLO 205, 1.55 µM (inactive); in the assay with HCT-116, 1.73 µM (inactive); in the assay with HCT-15, 2.53 µM; with HOP-92, 2.32 µM (inactive); in the assay with LXFL 529 it was 1.76 µM (inactive). For the same compound, the GI50 with MOLT-4 is 2.52 µM (inactive); in the assay on Malme-3M it was 2.81 µM (inactive); in the assay on NCI-H226, 16.6 µM (inactive); in the assay on OVCAR-3, 4.2 µM (inactive); with OVCAR-4, 2.23 µM (inactive); in the assay with OVCAR-5 it was 14.8 µM (inactive). In addition, the GI50 in the assay on SF-539 was 2.05 µM (inactive); in the assay with SNB-75, 1.66 µM (inactive); with SNB-78, 4.59 µM (inactive); with SR, 2.48 µM (inactive); in the assay on UACC-62, 3.3 µM (inactive).

For the compound `C/C(=N\NC(=[Se])N(C)C)c1ccccn1`, the GI50 is < 0.01 µM (active) in the assay with ACHN; < 0.01 µM (active) with COLO 205; < 0.01 µM (active) in the assay with HCT-116; 0.0352 µM in the assay with HCT-15; 1.09 µM (active) with HOP-92; < 0.01 µM (active) with LXFL 529. Also, the GI50 is 1.89 µM (inactive) in the assay on MDA-N; < 0.01 µM (active) in the assay with MOLT-4; 0.47 µM (active) with Malme-3M; 0.0973 µM (active) in the assay with NCI-H226; < 0.01 µM (active) in the assay with NCI/ADR-RES; 0.106 µM (active) in the assay with OVCAR-3. For the same compound, the GI50 in the assay on OVCAR-4 was 0.103 µM (active); in the assay with OVCAR-5, 0.103 µM (active); with SF-539, 0.577 µM (active); in the assay on SK-MEL-2 it was 0.585 µM (active); in the assay on SNB-75, 0.462 µM (active); in the assay on SNB-78, 2.97 µM (inactive). The GI50 in the assay with SR and with UACC-62 was < 0.01 µM (active) each time.

Take `CCC(CO)Nc1nc2c(c(=O)n(C)c(=O)n2C)n1CCO` (configuration not stated): the GI50 with ACHN was > 100 µM (inactive); in the assay on COLO 205, > 100 µM (inactive); in the assay on HCT-116, > 100 µM (inactive); with HCT-15, above 100 µM; with HOP-92, > 100 µM (inactive); with LXFL 529 it was > 100 µM (inactive). For the same compound, the GI50 in the assay with MOLT-4, in the assay with Malme-3M, in the assay with NCI-H226, in the assay with OVCAR-3, with OVCAR-5 and with SF-539 was > 100 µM (inactive) in each case. Further, the GI50 in the assay with SK-MEL-2 was > 100 µM (inactive); in the assay with SNB-75, 48.9 µM (inactive); in the assay on SNB-78, 4.91 µM (inactive); with SR, > 100 µM (inactive); with UACC-62, > 100 µM (inactive).

The values are drawn from ChEMBL document CHEMBL1201862, “PubChem BioAssay data set” (2004).
